Results from patent US7129267B2, “Methods for SHP1 mediated neuroprotection” (Janssen Pharmaceutica N.V., priority 2002, dated 2006).

Target: SHP1 (Homo sapiens, UniProt P29350)
Assay: SHP1 tyrosine phosphatase activity inhibition assay
Format: biochemical
Conditions: under the assay conditions
From the text: The invention further provides a method of identifying an inhibitor of a SHP1 tyrosine phosphatase activity, comprising the steps of: • 1) contacting a test compound with a SHP1 protein or an active fragment thereof; and • 2) determining the ability of the test compound to decrease the tyrosine phosphatase activity of SHP1.
A variety of assay methods can be used to determine the effect of the compound on the tyrosine phosphatase activity of SHP1. Some of the assay methods are disclosed in WO99/54450. For example, SHP1 phosphotase activity can be measured as a function of the ability of SHP1 to dephosphorylate a substrate, such as a phosphorylated JAK2. In particular, a phosphorylated peptide derived from JAK2. The dephosphorylation reaction can be monitored using a malachite green assay (Lanzetta et al., Anal Biochem. 1979, 100:95–7), which measures the release of inorganic phosphate from the substrate. Alternatively, SHP1 phosphotase activity can be measured in vivo by changes in cellular physiology affected by the SHP1 phosphotase activity, such as the inactivation of the EPOR signal transduction pathway.
Compounds of Formula I, II, and III were identified as inhibitors for SHP1 tyrosine phosphatase activity using methods of the invention.

Sequence of SHP1 (P29350 whole entry): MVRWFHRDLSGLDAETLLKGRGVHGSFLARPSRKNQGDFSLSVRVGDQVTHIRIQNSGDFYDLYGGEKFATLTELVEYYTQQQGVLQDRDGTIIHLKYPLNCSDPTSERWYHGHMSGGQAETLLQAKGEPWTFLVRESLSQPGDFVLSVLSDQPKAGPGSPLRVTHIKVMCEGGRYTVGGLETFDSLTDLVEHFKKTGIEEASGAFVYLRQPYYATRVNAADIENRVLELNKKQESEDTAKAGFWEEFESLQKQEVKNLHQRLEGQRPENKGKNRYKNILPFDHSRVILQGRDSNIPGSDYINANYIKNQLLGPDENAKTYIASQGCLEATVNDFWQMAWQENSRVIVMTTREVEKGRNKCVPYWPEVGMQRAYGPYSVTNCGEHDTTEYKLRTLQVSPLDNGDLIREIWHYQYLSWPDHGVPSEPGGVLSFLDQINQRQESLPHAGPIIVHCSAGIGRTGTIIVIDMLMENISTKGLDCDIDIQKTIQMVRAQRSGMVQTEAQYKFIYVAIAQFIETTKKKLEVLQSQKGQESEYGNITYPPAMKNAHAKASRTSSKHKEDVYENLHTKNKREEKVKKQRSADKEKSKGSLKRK

IC50 | Compound
22 µM | O=C(O)/C=C/c1ccc(/C=C/C(=O)O)s1
25.7 µM | CC(=O)Nc1ccc(/C=C2/SC(=S)NC2=O)cc1
4.3 µM | O=C1CSC(=S)N1CNc1ccc(NCN2C(=O)CSC2=S)cc1
